Experimental data as given in US7524853B2 (Solvay Pharmaceuticals B.V., priority 2003, dated 2009).

Legend:
Type in all cases: cell-based
[1] = target: T1, 17β-hydroxysteroid dehydrogenase type 1 (17β-HSD type 1) (Homo sapiens, UniProt P14061); experiment: Inhibition of 17β-HSD type 1 in MCF-7 cells stably expressing the isoenzyme (tritium labeled estrone conversion, HPLC); settings: MCF7, MCF-7 cells expressing 17β-HSD type 1, 2 nM tritium labeled estrone; for inhibition at 1 µM: 1 μM test compound, read-out: % Inhibition HSD1 1 μM; for inhibition at 10 µM: 10 μM test compound, read-out: % Inhibition HSD1 10 μM
T1 construct: expressed in transfected cells; host or cells: MCF-7
T1 sequence (P14061 1-328): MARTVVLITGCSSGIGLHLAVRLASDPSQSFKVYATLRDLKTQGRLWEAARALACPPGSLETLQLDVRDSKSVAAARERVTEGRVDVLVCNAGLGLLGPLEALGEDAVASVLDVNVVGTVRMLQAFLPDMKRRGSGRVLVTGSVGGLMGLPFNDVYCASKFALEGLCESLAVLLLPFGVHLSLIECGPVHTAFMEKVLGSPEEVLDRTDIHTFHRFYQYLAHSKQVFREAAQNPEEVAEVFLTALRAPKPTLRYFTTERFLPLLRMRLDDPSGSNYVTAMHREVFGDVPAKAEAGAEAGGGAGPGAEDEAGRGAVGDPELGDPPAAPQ
Source text: (§1) Biological Testing Materials and Methods 1. Inhibition of the 17β-hydroxysteroid dehydrocienase type 1, type 2 and type 3 enzyme
(§2) The compounds were screened in respect of 17β-HSD enzyme activity in vitro on established MCF-7 cell lines, each stably expressing one of the respective 17β-HSD isoenzymes. The interconversion of substrate by each isoenzyme and the 17β-HSD inhibiting activity of chemical compounds in these cell lines were detected by HPLC system.
(§3) Varying amounts of the test compounds were incubated in the growth medium of the 17β-HSD expressing cells together tritium labeled substrate (2 nM estrone for 17β-HSD type 1; 2 nM estradiol for 17β-HSD type 2; and 2 nM androstenedione for 17β-HSD type 3). The medium samples were removed after exact incubation time and the reaction is stopped by trichloroacetic acid (TCA). The samples were analyzed by HPLC-coupled flow scintillation analysis.
(§4) For each enzyme type, the HSD-inhibiting activity of an individual test compound was calculated by comparing the conversion of a control sample without any test compound (referred to as “Negative Control”) to the (reduced) conversion of the test sample containing the particular compound to be tested (referred to as “Test Sample”).
(§5) Two concentrations of each compound were used. The number of the compound refers to the numbers indicated in the Experimental Section.

[2] = target: T2, 17β-hydroxysteroid dehydrogenase type 2 (17β-HSD type 2) (Homo sapiens, UniProt P37059); experiment: Inhibition of 17β-HSD type 2 in MCF-7 cells stably expressing the isoenzyme (tritium labeled estradiol conversion, HPLC); settings: MCF7, MCF-7 cells expressing 17β-HSD type 2, 2 nM tritium labeled estradiol; for inhibition at 1 µM: 1 μM test compound, read-out: % Inhibition HSD2 1 μM; for inhibition at 10 µM: 10 μM test compound, read-out: % Inhibition HSD2 10 μM
T2 construct: expressed in transfected cells; host or cells: MCF-7
T2 sequence (P37059 1-387): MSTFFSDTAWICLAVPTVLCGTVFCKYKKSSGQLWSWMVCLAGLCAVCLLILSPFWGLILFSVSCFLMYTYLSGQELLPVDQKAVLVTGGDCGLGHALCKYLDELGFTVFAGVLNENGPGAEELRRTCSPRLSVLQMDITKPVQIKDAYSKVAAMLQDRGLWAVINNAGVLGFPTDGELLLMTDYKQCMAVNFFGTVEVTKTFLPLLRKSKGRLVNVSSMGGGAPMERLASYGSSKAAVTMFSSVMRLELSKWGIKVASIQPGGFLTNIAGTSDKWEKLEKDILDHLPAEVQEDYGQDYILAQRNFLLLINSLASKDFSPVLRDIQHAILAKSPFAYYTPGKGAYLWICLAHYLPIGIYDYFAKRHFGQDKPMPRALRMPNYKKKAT
Source text: as §1, §2, §3, §4, §5

[3] = target: T3, 17β-hydroxysteroid dehydrogenase type 3 (17β-HSD type 3) (Homo sapiens, UniProt P37058); experiment: Inhibition of 17β-HSD type 3 in MCF-7 cells stably expressing the isoenzyme (tritium labeled androstenedione conversion, HPLC); settings: MCF7, MCF-7 cells expressing 17β-HSD type 3, 2 nM tritium labeled androstenedione; for inhibition at 1 µM: 1 μM test compound, read-out: % Inhibition HSD3 1 μM; for inhibition at 10 µM: 10 μM test compound, read-out: % Inhibition HSD3 10 μM
T3 construct: expressed in transfected cells; host or cells: MCF-7
T3 sequence (P37058 1-310): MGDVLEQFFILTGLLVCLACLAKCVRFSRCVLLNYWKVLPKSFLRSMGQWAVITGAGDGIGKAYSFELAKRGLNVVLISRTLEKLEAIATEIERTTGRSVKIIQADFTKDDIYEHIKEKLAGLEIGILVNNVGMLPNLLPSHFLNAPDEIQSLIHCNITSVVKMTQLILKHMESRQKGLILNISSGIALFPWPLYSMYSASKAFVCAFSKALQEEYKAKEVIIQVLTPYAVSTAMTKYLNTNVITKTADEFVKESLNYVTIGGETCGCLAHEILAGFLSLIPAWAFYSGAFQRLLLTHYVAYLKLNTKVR
Source text: as §1, §2, §3, §4, §5

Compound | inhibition at 1 µM [1] | inhibition at 10 µM [1] | inhibition at 1 µM [2] | inhibition at 10 µM [2] | inhibition at 1 µM [3] | inhibition at 10 µM [3]
COc1ccc(-c2nc3sc4c(c3c(=O)n2Cc2ccccc2)CCCC4=O)cc1 [No. 13, 3-Benzyl-2-(p-methoxyphenyl)-6,7-dihydro-3H,5H-benzo[4,5]thieno[2,3-d]pyrimidine-4,8-dione] | 28% | 43.6% | 19.5% | 19.9% | 3% | 59.1%
COc1ccc(-c2nc3sc4c(c3c(=O)n2Cc2ccccc2)CCC(C=O)=C4Cl)cc1 [No. 14] | 8.6% | 29.7% | 0.5% | 18.8% | 22.7% | 80.8%
CCOC(=O)C1=Cc2sc3nc(-c4ccc(OC)cc4)n(Cc4ccccc4)c(=O)c3c2CC1 [No. 15, 3-Benzyl-2-(p-methoxyphenyl)-4-oxo-3,4,5,6-tetrahydro-benzo[4,5]thieno[2,3-d]pyrimidine-7-carboxylic acid ethyl ester] | -9.9% | -6.5% | -5.5% | 7.3% | 18.5% | 61.2%
CCSC1=C(C=O)CCc2c1sc1nc(-c3ccc(OC)cc3)n(Cc3ccccc3)c(=O)c21 [No. 16, 3-Benzyl-8-ethylsulfanyl-2-(p-methoxyphenyl)-4-oxo-3,4,5,6-tetrahydro-benzo[4,5]thieno[2,3-d]pyrimidine-7-carbaldehyde] | 1.7% | 33.5% | 5% | 20.1% | 75.7% | 100%
COc1ccc(-c2nc3sc4cc(C=O)ccc4c3c(=O)n2Cc2ccccc2)cc1 [No. 17, 3-Benzyl-2-(p-methoxyphenyl)-4-oxo-3,4-dihydro-benzo[4,5]thieno[2,3-d]pyrimidine-7-carbaldehyde] | 18.1% | 48.3% | -5.4% | 20.9% | 43.5% | 100%
CCSc1c(C=O)ccc2c1sc1nc(-c3ccc(OC)cc3)n(Cc3ccccc3)c(=O)c12 [No. 18, 3-Benzyl-8-ethylsulfanyl-2-(p-methoxyphenyl)-4-oxo-3,4-dihydro-benzo[4,5]thieno[2,3-d]pyrimidine-7-carbaldehyde] | 12.1% | 25.9% | 0% | 15.1% | 66.1% | 100%
CCSC1=C(CO)CCc2c1sc1nc(-c3ccc(OC)cc3)n(Cc3ccccc3)c(=O)c21 [No. 19] | 10.2% | 32% | 4.9% | 21.1% | 32.7% | 100%
COc1ccc(-c2nc3sc4c(Oc5ccccc5)c(CO)ccc4c3c(=O)n2Cc2ccccc2)cc1 [No. 20, 3-Benzyl-7-hydroxymethyl-2-(p-methoxyphenyl)-8-phenoxy-3H-benzo[4,5]thieno[2,3-d]pyrimidin-4-one] | 26% | 37.5% | -1.7% | 16.6% | 9.9% | 61.1%
COc1ccc(-c2nc3sc4c(Oc5ccccc5)c(C)ccc4c3c(=O)n2Cc2ccccc2)cc1 [No. 21, 3-Benzyl-7-methyl-2-(p-methoxyphenyl)-8-phenoxy-3H-benzo[4,5]thieno[2,3-d]pyrimidin-4-one] | -1.8% | -4.4% | -0.8% | 12.7% | -4.8% | 6.4%
COc1ccc(-c2nc3sc4c(c3c(=O)n2-c2ccccc2)CCCC4)cc1 [No. 22, 3-Phenyl-2-(p-methoxyphenyl)-5,6,7,8-tetrahydro-3H-benzo[4,5]thieno[2,3-d]pyrimidin-4-one] | 26% | 38.1% | 13% | 14.9% | -1.8% | 28.6%
COc1ccc(-c2nc3sc4c(c3c(=O)n2-c2ccccc2)CCCC4=O)cc1 [No. 23, 3-Phenyl-2-(p-methoxyphenyl)-6,7-dihydro-3H,5H-benzo[4,5]thieno[2,3-d]pyrimidin-4,8-dione] | 18.6% | 45.3% | 6.8% | 9.4% | 6.8% | 15.4%
Cc1nc2sc3c(c2c(=O)n1-c1ccccc1)CCCC3 [No. 24, 2-Methyl-3-phenyl-5,6,7,8-tetrahydro-3H-benzo[4,5]thieno[2,3-d]pyrimidin-4-one] | -7.5% | 15.4% | 4.1% | 9.7% | 17.1% | 30.9%
Cc1nc2sc3c(c2c(=O)n1-c1ccccc1)CCCC3=O [No. 25, 2-Methyl-3-phenyl-6,7-dihydro-3H,5H-benzo[4,5]thieno[2,3-d]pyrimidine-4,8-dione] | 5.9% | 13.8% | 5.5% | 7.9% | 25.7% | 29%
COC(=O)Cc1nc2sc3c(c2c(=O)n1Cc1ccccc1)CCCC3 [No. 26, 2-(acetic acid methyl ester)-3-benzyl-5,6,7,8-tetrahydro-3H-benzo[4,5]thieno[2,3-d]pyrimidin-4-one] | 23.5% | 37.4% | -1.8% | 32.3% | -6.1% | 7.1%
COCc1nc2sc3c(c2c(=O)n1Cc1ccccc1)CCCC3 [No. 27, 3-Benzyl-2-methoxymethyl-5,6,7,8-tetrahydro-3H-benzo[4,5]thieno[2,3-d]pyrimidin-4-one] | 11.2% | 32.3% | 8.5% | 7.2% | -14.4% | 12.2%
O=c1c2c3c(sc2nc(CO)n1Cc1ccccc1)CCCC3 [No. 28, 3-Benzyl-2-hydroxymethyl-5,6,7,8-tetrahydro-3H-benzo[4,5]thieno[2,3-d]pyrimidin-4-one] | 2.6% | 18% | 12.9% | 16.3% | 1.9% | 16.7%
CC(=O)OCc1nc2sc3c(c2c(=O)n1Cc1ccccc1)CCCC3 [No. 29, Acetic acid 3-benzyl-4-oxo-3,4,5,6,7,8-hexahydro-benzo[4,5]thieno[2,3-d]pyrimidin-2-ylmethyl ester] | 9% | 15.5% | 8.5% | 21.1% | 16.9% | 28.4%
